Measured values reported in patent US9872495B2, “Peptoid oligomers, pharmaceutical compositions and methods of using the same” (priority 2009, dated 2018).
≈ marks a conversion by molar mass, not a printed value. Like-named read-outs stand apart in the source and are kept apart here. Square brackets hold non-standard residues; d marks the D form. Peptide text beside a SMILES is read from it. Gly(N-(CH2)6NH2) = NCCCCCCNCC(=O)O; Gly(N(CH2)3NH2) = NCCCNCC(=O)O; NhArg = N=C(N)NCCCCNCC(=O)O; N(iPr)Gly = CC(C)NCC(=O)O; Nphe = O=C(O)CNCc1ccccc1; Nleu = CC(C)CNCC(=O)O; Nlys = NCCCCNCC(=O)O

Legend:
Type in all cases: cell-based
fresh human erythrocytes = test: Hemolytic activity
Method: Typically, toxicity is evaluated by hemolytic concentration50 (HC50), which measures the concentration of antimicrobial agents at which 50% of the erythrocytes in the culture are lysed. Significant hemolysis, as evaluated by HC50, was detectable only for peptide gramicidin S (40 μg/mL). […] In order to test hemolytic activity of peptoid oligomers further, more stringent parameters were used. Instead of HC50, hemolytic concentration10 (HC10) was used to evaluate hemolytic activity of peptoids used in this study. HC10 represents the concentration of antimicrobial agents where 10% of erythrocytes are lysed. HC10 values were detectable for only four peptoid oligomers. […] Antimicrobial activity was tested against the gram-negative strain Escherichia coli ATCC 25922, and […] strains Staphylococcus aureus ATCC 25923, and Bacillus subtilis ATCC 6633, according to the guidelines given in the document […]-A7 of the CLSI (Clinical and Laboratory Standards Institute; Clinical and Laboratory Standards Institute. Methods for Dilution Antimicrobial Susceptibility Tests for Bacteria That Grow Aerobically-Seventh Edition: Approved Standard CLSI document […]-A7. CLSI, Wayne, USA, 2006). This reference is incorporated herein in its entirety. Hemolytic activity was tested against fresh human erythrocytes.

[1] = test system: Escherichia coli ATCC 25922
Method: (§1) Antimicrobial activity was tested against the gram-negative strain Escherichia coli ATCC 25922, and […] strains Staphylococcus aureus ATCC 25923, and Bacillus subtilis ATCC 6633, according to the guidelines given in the document […]-A7 of the CLSI (Clinical and Laboratory Standards Institute; Clinical and Laboratory Standards Institute. Methods for Dilution Antimicrobial Susceptibility Tests for Bacteria That Grow Aerobically-Seventh Edition: Approved Standard CLSI document […]-A7. CLSI, Wayne, USA, 2006). This reference is incorporated herein in its entirety. Hemolytic activity was tested against fresh human erythrocytes.

[2] = test system: Bacillus subtilis ATCC 6633
Method: as §1

[3] = test system: Staphylococcus aureus ATCC 25923
Method: as §1

MIC E. coli ([1]; ATCC 25922) [µg/mL]	MIC B. sub ([2]; ATCC 6633) [µg/mL]	MIC S. aureus ([3]; ATCC 25923) [µg/mL]	SMILES	HC10 (concentration where 10% hemolysis is observed) (fresh human erythrocytes; red cells of human) [µg/mL]	HC50 (concentration where 50% hemolysis is observed) (fresh human erythrocytes; red cells of human) [µg/mL]	HC10 (concentration where 10% hemolysis is observed) (fresh human erythrocytes; fresh human erythrocytes) [µg/mL]	HC50 (concentration where 50% hemolysis is observed) (fresh human erythrocytes; fresh human erythrocytes) [µg/mL]	MIC E. coli ([1]; E. coli ATCC 25922) [µg/mL]	MIC B. sub ([2]; B. subtilis ATCC 6633) [µg/mL]	MIC S. aureus ([3]; S. aureus ATCC 25923) [µg/mL]
250 (≈ 303 µM)	250 (≈ 303 µM)	500 (≈ 605 µM)	NCCCCN1CC(=O)N(Cc2ccccc2)CC(=O)N(CCCCN)CC(=O)N(Cc2ccccc2)CC(=O)N(CCCCN)CC(=O)N(Cc2ccccc2)CC1=O [Compound 30, C(NabNpm)3] (cyclo([Nlys][Nphe][Nlys][Nphe][Nlys][Nphe]))	>250	>250	–	–	–	–	–
–	–	–	CC(C)CN1CC(=O)N(CCCN)CC(=O)N(C(C)C)CC(=O)N2CCC[C@H]2C(=O)N(Cc2ccccc2)CC(=O)N(CC(C)C)CC(=O)N(CCCN)CC(=O)N(C(C)C)CC(=O)N2CCC[C@H]2C(=O)N(Cc2ccccc2)CC1=O [Compound 29, C(NpmNibNapNipPro)2] (cyclo([Nleu][Gly(N(CH2)3NH2)][N(iPr)Gly]P[Nphe][Nleu][Gly(N(CH2)3NH2)][N(iPr)Gly]P[Nphe]))	>250	>250	–	–	–	–	–
–	–	–	CC(=O)N(CC(=O)N(CCCCNC(=N)N)CC(=O)N(CC(=O)N(CCCCNC(=N)N)CC(=O)N(CC(=O)N(CC(N)=O)CC(c1ccccc1)c1ccccc1)CC(c1ccccc1)c1ccccc1)CC(c1ccccc1)c1ccccc1)CC(c1ccccc1)c1ccccc1 [Compound 16, Ac(NdpNgb)2Ndp2]	–	–	250	>250	>500	>500	62.5 (≈ 46.3 µM)
250 (≈ 263 µM)	125 (≈ 131 µM)	250 (≈ 263 µM)	N=C(N)NCCCCN1CC(=O)N(Cc2ccccc2)CC(=O)N(CCCCNC(=N)N)CC(=O)N(Cc2ccccc2)CC(=O)N(CCCCNC(=N)N)CC(=O)N(Cc2ccccc2)CC1=O [Compound 18, C(NgbNpm)3] (cyclo([Nphe][NhArg][Nphe][NhArg][Nphe][NhArg]))	>250	>250	–	–	–	–	–
>500	>500	>500	CC(=O)N(CCCCCCN)CC(=O)N(CC(=O)N(CCCCCCN)CC(=O)N(CC(=O)N(CCCCCCN)CC(=O)N(CC(N)=O)Cc1ccccc1)Cc1ccccc1)Cc1ccccc1 [Compound 3, Ac(NahNpm)3] (Ac-[Gly(N-(CH2)6NH2)][Nphe][Gly(N-(CH2)6NH2)][Nphe][Gly(N-(CH2)6NH2)][Nphe]-NH2)	>250	>250	–	–	–	–	–
31.3 (≈ 22.9 µM)	15.6 (≈ 11.4 µM)	62.5 (≈ 45.8 µM)	CC(=O)N(CCCN)CC(=O)N(CC(=O)N(CCCN)CC(=O)N(CC(=O)N(CCCN)CC(=O)N(CC(=O)N(CCCN)CC(=O)N(CC(=O)N(CCCN)CC(=O)N(CC(N)=O)Cc1ccccc1)Cc1ccccc1)Cc1ccccc1)Cc1ccccc1)Cc1ccccc1 [Compound 9, Ac(NapNpm)5] (Ac-[Gly(N(CH2)3NH2)][Nphe][Gly(N(CH2)3NH2)][Nphe][Gly(N(CH2)3NH2)][Nphe][Gly(N(CH2)3NH2)][Nphe][Gly(N(CH2)3NH2)][Nphe]-NH2)	>250	>250	–	–	–	–	–
>500	500 (≈ 638 µM)	500 (≈ 638 µM)	NCCCN1CC(=O)N(Cc2ccccc2)CC(=O)N(CCCN)CC(=O)N(Cc2ccccc2)CC(=O)N(CCCN)CC(=O)N(Cc2ccccc2)CC1=O [Compound 23, C(NapNpm)3] (cyclo([Nphe][Gly(N(CH2)3NH2)][Nphe][Gly(N(CH2)3NH2)][Nphe][Gly(N(CH2)3NH2)]))	>250	>250	–	–	–	–	–
